According to patent publication US20210000852A1, “POLYDATIN PACLITAXEL COMPOSITION, AND APPLICATION IN PREPARING MEDICAMENT FOR PREVENTING AND TREATING GASTRIC CANCER” (Tianjin Medical University Cancer Institute and Hospital, priority 2018, published 2021):

Experiments:
[1] = system: human gastric cancer cells SGC-7901; test: CCK-8 growth and proliferation activity, SGC-7901 cells; format: cell-based; conditions: for inhibition of the activity of gastric cancer cells (single agent): SGC-7901, 24 h, concentration gradients; for IC50 / IC50 of SGC-7901 cells: SGC-7901, treated for 24 h
Text: (§1) Human gastric cancer cell line SGC-7901 was purchased from Shanghai Genechem Co., Ltd. and human gastric cancer cell line AGS was purchased from Cell Bank of American Type Culture Collection (ATCC) (ATCC No. CRL-1739).
(§2) In FIG. 5, the mass ration of composition is as follows: (a) mPD: mPaclitaxel=22.65:1 (Example 3); (b) mPD: mPaclitaxel=45.29:1; (c) mPD: mPaclitaxel=90.59:1; (d) mPD: mPaclitaxel=226.48:1. In FIG. 6, the mass ration of composition is as follows: (a) mPD: mPaclitaxel=8.44:1; (b) mPD: mPaclitaxel=16.88:1; (c) mPD: mPaclitaxel=33.77:1 (Example 4).
(§3) In FIG. 7, the mass ration of composition is as follows: (a) mPD: mPactitaxel=45.29:1; (b) mPD: mPaclitaxel=90.59:1; (c) mPD: mPaclitaxel=226.48:1. In FIG. 8, the mass ration of composition is as follows: (a) mPD: mPaclitaxel=16.88:1; (b) mPD: mPaclitaxel=33.77:1.

[2] = system: human gastric cancer cells AGS; test: CCK-8 growth and proliferation activity, AGS cells; format: cell-based; conditions: for inhibition of the activity of gastric cancer cells (single agent): 24 h, concentration gradients; for IC50 / IC50 of AGS cells: treated for 24 h
Text: as §1, §2, §3

| Molecule | inhibition of the activity of gastric cancer cells (single agent) [1] | IC50 [1] | IC50 of SGC-7901 cells [1] | inhibition of the activity of gastric cancer cells (single agent) [2] | IC50 [2] | IC50 of AGS cells [2] |
| --- | --- | --- | --- | --- | --- | --- |
| Polydatin | inhibit the activity of both gastric cancer cells in a concentration-dependent manner | 139 µM | 124.0 µg/mL | inhibit the activity of both gastric cancer cells in a concentration-dependent manner | 56.2 µM | 53.5 µg/mL |
| CC(=O)O[C@H]1C(=O)[C@@]2(C)[C@H]([C@H](OC(=O)c3ccccc3)[C@]3(O)C[C@H](OC(=O)[C@H](O)[C@@H](NC(=O)c4ccccc4)c4ccccc4)C(C)=C1C3(C)C)[C@]1(OC(C)=O)CO[C@@H]1C[C@@H]2O [Paclitaxel] | inhibit the activity of both gastric cancer cells in a concentration-dependent manner | 5.27 µM | 5.5 µg/mL | inhibit the activity of both gastric cancer cells in a concentration-dependent manner | 3.34 µM | 6.3 µg/mL |
